Results on 3 molecules are retold here after BindingDB's records for doi:10.1074/jbc.M112.399303 (Universidade Federal do Rio de Janeiro, 2014).

Common to all, as to assay: Diffusion Ordered Spectroscopy (DOSY)
Holding throughout (conditions): 11 °C

For assay [1], the target named is T1, Trans-sialidase [3-643,Y342H] (Trypanosoma cruzi, UniProt Q9BHJ5, Y342H).
T1 construct: 3-643
The protocol: (§1) Solutions of TS, TSY342H, and TSD247A in 20 mM Tris-HCl were exchanged with deuterated PBS using four cycles of concentration with Amicon Ultra (50,000 nominal molecular weight limit; Millipore) and diluted in deuterated PBS. One hundred microliters of 0.1 mM protein solution (TcTSs or BSA) was titrated with the sialoside (0.2, 0.4, 0.6, 0.8, 1.0, 1.2, 1.6, and 2.0 mM) or lacto-N-neotetraose (0.1, 0.2, 0.3, 0.4, 0.5, 0.6, 0.7, and 0.9mM) as a negative control. The solution containing 0.1 mM protein plus sialoside was further titrated with Me-Lac (0.1, 0.2, 0.3, 0.4, 0.5, 0.6, 0.7, and 0.9 mM) in Shigemi tubes. NMR spectra were obtained at a probe temperature of 293 K on a Bruker DMX 600-MHz spectrometer equipped with a 5-mm self-shielded gradient triple resonance probe. All DOSY experiments were performed with a stimulated echo using bipolar gradient pulses for diffusion, one spoil gradient, and the 3-9-19 pulse sequence with gradients for water suppression according to the Bruker pulse program stebpgp1s19. The gradient duration was set to δ = 10 ms (protein-only experiments) and 20ms (protein⋅carbohydrate complexes experiments), and the diffusion time was set to Δ = 40 ms. Gradient strength was linearly varied in 16 steps from 0.6 to 6.7 G/cm. For each of the 16 gradient amplitudes, eight transients of 192 complex data points were acquired to a 10.0-ppm spectral width. The pulse repetition delay between each scan was 3 s.

Another assay concerns the target T2, Trans-sialidase [3-643] (Trypanosoma cruzi, UniProt Q9BHJ5).
T2 construct: 3-643
T2 sequence (Q9BHJ5 whole entry): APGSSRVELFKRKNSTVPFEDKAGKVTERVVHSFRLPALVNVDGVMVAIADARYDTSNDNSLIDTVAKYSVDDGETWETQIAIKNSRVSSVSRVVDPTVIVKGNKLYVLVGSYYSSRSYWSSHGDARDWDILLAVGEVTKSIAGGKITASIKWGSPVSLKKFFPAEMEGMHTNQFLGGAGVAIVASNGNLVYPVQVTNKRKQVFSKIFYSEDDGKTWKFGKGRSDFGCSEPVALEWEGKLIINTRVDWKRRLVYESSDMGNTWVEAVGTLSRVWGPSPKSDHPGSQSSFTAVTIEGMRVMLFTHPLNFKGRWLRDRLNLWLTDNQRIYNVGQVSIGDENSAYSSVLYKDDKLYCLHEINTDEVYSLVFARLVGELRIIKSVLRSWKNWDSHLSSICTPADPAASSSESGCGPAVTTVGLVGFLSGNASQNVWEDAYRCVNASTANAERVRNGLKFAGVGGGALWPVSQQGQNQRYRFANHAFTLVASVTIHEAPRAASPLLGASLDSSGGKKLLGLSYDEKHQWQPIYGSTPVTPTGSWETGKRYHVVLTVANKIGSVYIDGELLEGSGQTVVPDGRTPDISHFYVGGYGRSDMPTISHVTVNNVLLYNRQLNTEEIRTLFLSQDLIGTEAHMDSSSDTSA
The protocol: as §1

Assay [2] concerns the target T3, Trans-sialidase [3-643,D247A] (Trypanosoma cruzi, UniProt Q9BHJ5, D247A).
T3 construct: 3-643
The procedure:
as §1

T1 sequence (Q9BHJ5 3-643 Y344H): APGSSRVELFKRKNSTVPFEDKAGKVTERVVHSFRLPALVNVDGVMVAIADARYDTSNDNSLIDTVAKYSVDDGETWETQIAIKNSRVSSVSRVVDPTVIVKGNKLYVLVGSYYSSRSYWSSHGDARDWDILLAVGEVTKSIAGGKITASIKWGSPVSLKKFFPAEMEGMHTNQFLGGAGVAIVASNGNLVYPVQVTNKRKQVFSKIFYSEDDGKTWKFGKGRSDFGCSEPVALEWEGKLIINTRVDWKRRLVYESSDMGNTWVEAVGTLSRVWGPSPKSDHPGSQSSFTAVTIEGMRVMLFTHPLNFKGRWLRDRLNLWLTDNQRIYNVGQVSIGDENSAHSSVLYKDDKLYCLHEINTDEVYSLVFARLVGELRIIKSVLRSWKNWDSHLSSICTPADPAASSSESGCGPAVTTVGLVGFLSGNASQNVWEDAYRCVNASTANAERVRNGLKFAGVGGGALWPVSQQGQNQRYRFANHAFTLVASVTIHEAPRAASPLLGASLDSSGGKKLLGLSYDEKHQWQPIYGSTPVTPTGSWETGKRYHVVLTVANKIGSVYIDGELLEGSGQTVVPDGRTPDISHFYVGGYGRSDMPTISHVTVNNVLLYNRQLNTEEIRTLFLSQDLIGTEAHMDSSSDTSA
T3 sequence (Q9BHJ5 3-643 D249A): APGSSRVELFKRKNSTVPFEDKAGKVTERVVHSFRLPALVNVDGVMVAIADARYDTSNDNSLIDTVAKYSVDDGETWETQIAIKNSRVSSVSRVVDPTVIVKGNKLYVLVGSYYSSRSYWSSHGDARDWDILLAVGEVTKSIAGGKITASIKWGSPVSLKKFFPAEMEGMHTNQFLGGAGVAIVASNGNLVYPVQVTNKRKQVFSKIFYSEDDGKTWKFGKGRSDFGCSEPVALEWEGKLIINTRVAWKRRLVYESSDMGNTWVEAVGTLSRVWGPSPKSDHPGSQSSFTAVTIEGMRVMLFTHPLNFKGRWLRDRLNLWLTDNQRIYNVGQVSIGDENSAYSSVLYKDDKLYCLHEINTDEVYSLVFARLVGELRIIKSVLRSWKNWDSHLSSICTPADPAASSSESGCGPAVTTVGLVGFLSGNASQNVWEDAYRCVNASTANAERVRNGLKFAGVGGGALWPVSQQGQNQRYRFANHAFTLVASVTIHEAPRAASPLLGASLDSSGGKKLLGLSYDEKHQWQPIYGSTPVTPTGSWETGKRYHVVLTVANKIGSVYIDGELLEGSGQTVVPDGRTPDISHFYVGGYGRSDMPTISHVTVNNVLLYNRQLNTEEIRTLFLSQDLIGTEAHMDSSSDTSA

What is called Kd is a measure of binding affinity in units of concentration. Low values mean higher affinity, high ones lower affinity. Consider `CO[C@@H]1O[C@H](CO)[C@@H](O[C@@H]2O[C@H](CO)[C@H](O)[C@H](O)[C@H]2O)[C@H](O)[C@H]1O` [CHEBI:610092], for which the Kd is 52 µM in assay [1] and 15 µM on Trans-sialidase [3-643].
The molecule `COC1OC(CO)C(O)C(SC2(C(=O)O)CC(O)C(NC(C)=O)C([C@H](O)[C@H](O)CO)O2)C1O` (stereo not given in full) [NeuSGal] had a Kd on Trans-sialidase [3-643] of 456 µM.
With `CC(=O)NC1C(O)CC(OC2C(O)C(CO)OC(OC3C(CO)OC(O)C(O)C3O)C2O)(C(=O)O)OC1[C@H](O)[C@H](O)CO` (stereo partly drawn) [α2,3'-sialyllactose], the Kd worked out at 107 µM in assay [2] and 234 µM in assay [1].
